Results: patent US8133913B2, “Substituted indeno [1,2-b]indole derivatives as novel inhibitors of protein kinase CK2 and their use as tumor therapeutic agents, cytostatics and diagnostic aids” (Heinrich-Heine Universitat Dusseldof, priority 2006, dated 2012)

Tests used:
KYSE-70 = test: Proliferation of tumor cell lines (Bracht et al.); assay type: cell-based; details: Homo sapiens; for activity at 20 µM: KYSE-70, tested at 20 μM
[1] = biological target: T1, human CK2 protein kinase (holoenzyme) (Homo sapiens, UniProt P68400); test: Inhibition of recombinant human CK2 protein kinase (holoenzyme), radiometric filter assay with peptide […]; assay type: biochemical; details: for inhibition at 10 µM: 10 μM compound, DMSO control = 100% CK2 activity, at least three independent experiments; for IC50: concentration range 30 μM to 0.01 μM, 100 μM ATP in assay buffer
T1 construct: made in house; host or cells: E. coli BL21(DE3), pT7-7 or bicistronic pET11d-CK2α, β
T1 sequence (P68400 whole entry): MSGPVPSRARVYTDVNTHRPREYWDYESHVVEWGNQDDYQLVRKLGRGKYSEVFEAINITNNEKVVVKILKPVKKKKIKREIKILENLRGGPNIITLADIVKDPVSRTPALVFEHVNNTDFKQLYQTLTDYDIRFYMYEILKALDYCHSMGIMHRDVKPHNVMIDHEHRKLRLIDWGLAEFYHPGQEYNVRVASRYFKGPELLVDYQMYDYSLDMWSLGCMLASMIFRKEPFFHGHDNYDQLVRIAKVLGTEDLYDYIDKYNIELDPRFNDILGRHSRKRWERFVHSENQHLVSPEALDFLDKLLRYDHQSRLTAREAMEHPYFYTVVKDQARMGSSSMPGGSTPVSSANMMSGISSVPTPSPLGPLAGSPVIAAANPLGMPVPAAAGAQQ
T1 sequence (P67870 whole entry partner): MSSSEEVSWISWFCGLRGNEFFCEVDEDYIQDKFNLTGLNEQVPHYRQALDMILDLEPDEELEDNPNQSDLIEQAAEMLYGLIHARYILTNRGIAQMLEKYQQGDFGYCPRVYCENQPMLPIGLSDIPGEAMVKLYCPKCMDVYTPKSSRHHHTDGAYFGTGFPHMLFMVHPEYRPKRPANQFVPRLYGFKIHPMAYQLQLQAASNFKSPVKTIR

5637 = test: Proliferation of tumor cell lines (Bracht et al.); assay type: cell-based; details: for activity at 20 µM: 5637, tested at 20 μM
SISO = test: Proliferation of tumor cell lines (Bracht et al.); assay type: cell-based; details: for activity at 20 µM: tested at 20 μM
RT-4 = test: Proliferation of tumor cell lines (Bracht et al.); assay type: cell-based; details: Homo sapiens, read-out: IC50 (μM) Mean, inhibition of cell proliferation
A427 = test: Proliferation of tumor cell lines (Bracht et al.); assay type: cell-based; details: Homo sapiens, A-427, read-out: IC50 (μM) Mean, inhibition of cell proliferation
MCF-7 = test: Proliferation of tumor cell lines (Bracht et al.); assay type: cell-based; details: Homo sapiens, MCF7, read-out: IC50 (μM) Mean, inhibition of cell proliferation
DAN-G = test: Proliferation of tumor cell lines (Bracht et al.); assay type: cell-based; details: read-out: IC50 (μM) Mean, inhibition of cell proliferation
LCLC = test: Proliferation of tumor cell lines (Bracht et al.); assay type: cell-based; details: read-out: IC50 (μM) Mean, inhibition of cell proliferation
CK2 = details: known CK2 inhibitors, investigated predominantly on the rat enzyme; cited from earlier work

Structure (SMILES)	melting point	activity at 20 µM (KYSE-70; read-out: T/C (%) Mean) [%]	activity at 20 µM (5637; read-out: T/C (%) Mean) [%]	activity at 20 µM (SISO; read-out: T/C (%) Mean) [%]	other results
COc1ccc(CCn2c3c(c4c2-c2ccccc2C4=O)C(=O)CCC3)cc1OC (hydrate or solvate) [Compound 4j, 5-[2-(3,4-Dimethoxyphenyl)ethyl]-5,6,7,8-tetrahydroindeno[1,2-b]indole-9,10-dione]	189 to 190 °C	–	–	–	–
CC(c1ccccc1)n1c2c(c3c1-c1ccccc1C3=O)C(=O)CCC2 (racemic) [Compound 4f, DL-5-(1-phenylethyl)-5,6,7,8-tetrahydro-indeno[1,2-b]indole-9,10-dione]	201 °C	62.3	64.9	95.8	inhibition at 10 µM [1]: 66%
O=C1CCCc2[nH]c3c(c21)C(=O)c1ccccc1-3 [Compound 4a, 5,6,7,8-Tetrahydroindeno[1,2-b]indole-9,10-dione]	332 to 333 °C	77.5	80.9	99.9	–
O=C1CCCc2c1c1c(n2Cc2ccccc2)-c2ccccc2C1=O [Compound 4c, 5-Benzyl-5,6,7,8-tetrahydroindeno[1,2-b]indole-9,10-dione]	185 °C	65.8	53.6	86.4	–
O=C1CCCc2c1c1c(n2CCc2ccccc2)-c2ccccc2C1=O [Compound 4d, 5-Phenethyl-5,6,7,8-tetrahydro-indeno[1,2-b]indole-9,10-dione]	–	67.5	48	65.5	IC50 (KYSE-70; KYSE-70, read-out: IC50 (μM) Mean, inhibition of cell proliferation): > 20 µM; IC50 (RT-4): > 20 µM; inhibition at 10 µM [1]: 67%; IC50 [1]: 0.82 µM; IC50 (A427): > 20 µM; IC50 (MCF-7): 6.53 µM; IC50 (5637; 5637, read-out: IC50 (μM) Mean, inhibition of cell proliferation): 10.7 µM; IC50 (SISO; read-out: IC50 (μM) Mean, inhibition of cell proliferation): 12.3 µM; IC50 (DAN-G): > 20 µM; IC50 (LCLC): 5.66 µM
O=C1CCCc2c1c1c(n2-c2ccccc2)-c2ccccc2C1=O [Compound 4g, 5-Phenyl-5,6,7,8-tetrahydroindeno[1,2-b]indole-9,10-dione]	–	–	–	–	activity at 10 µM (KYSE-70; KYSE-70, tested at 10 μM (**), read-out: T/C (%) Mean): 81.8%; inhibition at 10 µM [1]: 60%; IC50 [1]: 1.44 µM; activity at 10 µM (5637; 5637, tested at 10 μM (**), read-out: T/C (%) Mean): 86.3%; activity at 10 µM (SISO; tested at 10 μM (**), read-out: T/C (%) Mean): 101%
COc1ccc(Cn2c3c(c4c2-c2ccccc2C4=O)C(=O)CCC3)cc1 [Compound 4i, 5-(4-Methoxybenzyl)-5,6,7,8-tetrahydro-indeno[1,2-b]indole-9,10-dione]	198 to 199 °C	79.2	78.2	93.6	–
COc1ccc(CCn2c3c(c4c2-c2ccccc2C4=O)C(=O)CCC3)cc1OC [Compound 4j, 5-[2-(3,4-Dimethoxyphenyl)ethyl]-5,6,7,8-tetrahydroindeno[1,2-b]indole-9,10-dione]	–	91.5	101	105	–
COC(=O)C1C(=O)c2c([nH]c3c2C(=O)c2ccccc2-3)CC1C (stereo not shown) [Compound 4l, Methyl 7-methyl-9,10-dioxo-5,6,7,8,9,10-hexahydroindeno[1,2-b]indole-8-carboxylate]	287 °C	98.8	79.1	104	–
O=C1CC(c2ccccc2)Cc2c1c1c(n2Cc2ccccc2)-c2ccccc2C1=O (stereo not shown) [Compound 4n, 5-Benzyl-7-phenyl-5,6,7,8-tetrahydro-indeno[1,2-b]indole-9,10-dione]	–	75.2	39.4	80.9	–
CC1CC(=O)c2c3c(n(CCc4ccccc4)c2C1)-c1ccccc1C3=O (stereo not shown) [Compound 4p, 7-Methyl-5-phenethyl-5,6,7,8-tetrahydro-indeno[1,2-b]indole-9,10-dione]	–	72.1	49.8	96.3	–
CC(C)n1c2c(c3c(O)cccc31)C(=O)c1ccccc1-2 [Compound 5b, 9-Hydroxy-5-isopropyl-5H-indeno[1,2-b]indol-10-one]	–	77.6	77.5	104	–
O=c1ccc(=O)c2c1c1c(=O)c3ccccc3c1n2CCc1ccccc1 [Compound 6d, 5-Phenethyl-5H-indeno[1,2-b]indole-6,9,10-trione]	–	–	–	–	activity at 5 µM (KYSE-70; KYSE-70, tested at 5 μM (*), read-out: T/C (%) Mean): 92%; inhibition at 10 µM [1]: 70%; IC50 [1]: 5.74 µM; activity at 5 µM (5637; 5637, tested at 5 μM (*), read-out: T/C (%) Mean): 69.7%; activity at 5 µM (SISO; tested at 5 μM (*), read-out: T/C (%) Mean): 87.2%
CN(C)CCn1c2c(c3c1-c1ccccc1C3=O)C(=O)CCC2 [Example 11, 5-(2-Dimethylaminoethyl)-5,6,7,8-tetra-hydroindeno[1,2-b]indole-9,10-dione]	178 °C	–	–	–	–
O=C1CCCc2c1c1c(n2CCCO)-c2ccccc2C1=O [Example 12, 5-(3-Hydroxypropyl)-5,6,7,8-tetrahydro-indeno[1,2-b]indole-9,10-dione]	241 °C	–	–	–	–
O=C(O)Cn1c2c(c3c1-c1ccccc1C3=O)C(=O)CCC2 [Example 13, (9,10-Dioxo-6,8,9,10-tetrahydro-7H-indeno[1,2-b]indol-5-yl)acetic acid]	279 to 280 °C (dec.)	–	–	–	–
O=C1CCCc2c1c1c(n2CCO)-c2ccccc2C1=O [Example 14, 5-(2-Hydroxyethyl)-5,6,7,8-tetrahydro-indeno[1,2-b]indole-9,10-dione]	262 to 263 °C	–	–	–	–
CCOCCCn1c2c(c3c1-c1ccccc1C3=O)C(=O)CCC2 [Example 16, 5-Ethoxypropyl-5,6,7,8-tetrahydro-indeno[1,2-b]indole-9,10-dione]	129 °C	–	–	–	–
COC(=O)C1C(=O)c2c3c(n(-c4ccccc4)c2CC1C)-c1ccccc1C3=O (stereo not shown) [Example 20, Methyl 7-methyl-9,10-dioxo-5-phenyl-5,6,7,8,9,10-hexahydroindeno[1,2-b]indole-8-carboxylate]	249 to 250 °C	–	–	–	–
Cc1cc(O)c2c(c1)C(=O)c1cc(O)cc(O)c1C2=O [emodin]	–	–	–	–	IC50 (CK2): 2 µM
